Values of other authors, collected in patent US8551962B2, “High dosage doramectin formulation” (Zoetis LLC, priority 2009, dated 2013).

Settings: beef cattle; single dose of 200 μg/Kg of body weight

## CO[C@H]1C[C@H](O[C@H]2[C@H](C)O[C@@H](O[C@@H]3/C(C)=C/C[C@@H]4C[C@@H](C[C@]5(C=C[C@H](C)[C@@H](C6CCCCC6)O5)O4)OC(=O)[C@@H]4C=C(C)[C@@H](O)[C@H]5OC/C(=C\C=C\[C@@H]3C)[C@]54O)C[C@@H]2OC)O[C@@H](C)[C@@H]1O [doramectin]
  withhold time: 35 days
